SMILES strings stand for the structures. A value given as a limit tells only on which side of the number the result lay.

What all share (type): cell-based
One test addresses T1, hEP2/Gqs5 (Homo sapiens, UniProt P43116).
T1 construct: expressed in transfected cells; host or cells: HEK-293(EBNA)
The experiment in a line: FLIPR calcium signal, EP2. The conditions noted are these: HEK-293(EBNA) cells. The method, then:
(§1) HEK-293(EBNA) cells, stably expressing one type or subtype of recombinant human prostaglandin receptors (prostaglandin receptors expressed: hDP/Gqs5; hEP1; hEP2/Gqs5; hEP3A/Gqi5; hEP4/Gqs5; hFP; hIP; hTP), were cultured in 100 mm culture dishes in high-glucose DMEM medium containing 10% fetal bovine serum, 2 mM l-glutamine, 250 μg/ml geneticin (G418) and 200 μg/ml hygromycin B as selection markers, and 100 units/ml penicillin G, 100 μg/ml streptomycin and 0.25 μg/ml amphotericin B.
(§2) Cells were seeded at a density of 5×10^4 cells per well in Biocoat® Poly-D-lysine-coated black-wall, clear-bottom 96-well plates (Becton-Dickinson) and allowed to attach overnight in an incubator at 37° C. Cells were then washed two times with HBSS-HEPES buffer (Hanks Balanced Salt Solution without bicarbonate and phenol red, 20 mM HEPES, pH 7.4) using a Denley Cellwash plate washer (Labsystems). After 45 minutes of dye-loading in the dark, using the calcium-sensitive dye Fluo-4 […] at a final concentration of 2 μM, plates were washed four times with HBSS-HEPES buffer to remove excess dye leaving 100 μl in each well. Plates were re-equilibrated to 37° C. for a few minutes.
(§3) Cells were excited with an Argon laser at 488 nm, and emission was measured through a 510-570 nm bandwidth emission filter (FLIPR™, Molecular Devices, Sunnyvale, Calif.). Drug solution was added in a 50 μl volume to each well to give the desired final concentration. The peak increase in fluorescence intensity was recorded for each well. On each plate, four wells each served as negative (HBSS-HEPES buffer) and positive controls (standard agonists: BW245C (hDP); PGE2 (hEP1; hEP2/Gqs5; hEP3A/Gqi5; hEP4/Gqs5); PGF2α (hFP); carbacyclin (hIP); U-46619 (hTP), depending on receptor). The peak fluorescence change in each drug-containing well was then expressed relative to the controls.
(§4) Compounds were tested in a high-throughput (HTS) or concentration-response (CoRe) format. In the HTS format, forty-four compounds per plate were examined in duplicates at a concentration of 10^−5 M. To generate concentration-response curves, four compounds per plate were tested in duplicates in a concentration range between 10^−5 and 10^−11 M. The duplicate values were averaged. In either, HTS or CoRe format each compound was tested on at least 3 separate plates using cells from different passages to give an n≧3.

A further test concerns the target T2, hFP (Homo sapiens, UniProt P43088).
T2 construct: expressed in transfected cells; host or cells: HEK-293(EBNA)
Nature of the test: FLIPR calcium signal, hFP. The conditions noted are these: read-out: Other Receptors (EC50 in nM) hFP. The method, then: as §1
(§5) Cells were seeded at a density of 5×10^4 cells per well in Biocoat® Poly-D-lysine-coated black-wall, clear-bottom 96-well plates (Becton-Dickinson) and allowed to attach overnight in an incubator at 37° C. Cells were then washed two times with HBSS-HEPES buffer (Hanks Balanced Salt Solution without bicarbonate and phenol red, 20 mM HEPES, pH 7.4) using a Denley Cellwash plate washer (Labsystems). […]
(§6) Cells were excited with an Argon laser at 488 nm, and emission was measured through a 510-570 nm bandwidth emission filter (FLIPR™, Molecular Devices, Sunnyvale, Calif.). […] The peak increase in fluorescence intensity was recorded for each well. […] The peak fluorescence change in each drug-containing well was then expressed relative to the controls. […]

The next test addresses T3, hEP3A/Gqi5 (Homo sapiens, UniProt P43115).
T3 construct: expressed in transfected cells; host or cells: HEK-293(EBNA)
T3 sequence (P43115 1-390): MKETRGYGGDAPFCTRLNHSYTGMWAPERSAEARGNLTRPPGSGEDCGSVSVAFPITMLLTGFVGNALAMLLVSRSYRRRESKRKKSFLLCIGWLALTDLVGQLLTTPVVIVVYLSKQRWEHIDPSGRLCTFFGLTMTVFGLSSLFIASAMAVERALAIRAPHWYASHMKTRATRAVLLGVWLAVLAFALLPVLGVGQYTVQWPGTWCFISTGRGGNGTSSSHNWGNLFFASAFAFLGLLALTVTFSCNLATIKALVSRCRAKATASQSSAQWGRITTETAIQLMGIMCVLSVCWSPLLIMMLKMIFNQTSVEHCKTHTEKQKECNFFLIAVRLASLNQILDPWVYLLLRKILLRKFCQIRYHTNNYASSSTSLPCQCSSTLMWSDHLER
Nature of the test: FLIPR calcium signal, hEP3A. The conditions noted are these: read-out: Other Receptors (EC50 in nM) hEP3A. The procedure: as §1, §5, §6

Another test has as its target T4, hDP/Gqs5 (Homo sapiens, UniProt Q13258).
T4 construct: expressed in transfected cells; host or cells: HEK-293(EBNA)
T4 sequence (Q13258 1-359): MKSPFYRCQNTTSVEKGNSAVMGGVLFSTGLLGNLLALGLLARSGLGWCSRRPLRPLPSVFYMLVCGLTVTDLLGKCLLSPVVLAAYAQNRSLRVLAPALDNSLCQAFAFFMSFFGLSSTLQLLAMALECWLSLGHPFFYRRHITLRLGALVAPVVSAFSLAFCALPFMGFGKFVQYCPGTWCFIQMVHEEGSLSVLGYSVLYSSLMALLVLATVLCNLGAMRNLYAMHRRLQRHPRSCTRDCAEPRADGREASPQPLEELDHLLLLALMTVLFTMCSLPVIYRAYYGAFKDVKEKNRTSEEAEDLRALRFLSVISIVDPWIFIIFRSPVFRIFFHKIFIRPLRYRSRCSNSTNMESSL
Nature of the test: FLIPR calcium signal, hDP. The conditions noted are these: read-out: Other Receptors (EC50 in nM) hDP. The method, then: as §1, §2, §3, §4

A further test has as its target T5, hEP4/Gqs5 (Homo sapiens, UniProt P35408).
T5 construct: expressed in transfected cells; host or cells: HEK-293(EBNA)
The experiment in a line: FLIPR calcium signal, EP4. The conditions noted are these: HEK-293(EBNA) cells. The procedure:
as §1, §2, §3, §4

Another test addresses T6, hTP (Homo sapiens, UniProt P21731).
T6 construct: expressed in transfected cells; host or cells: HEK-293(EBNA)
T6 sequence (P21731 1-343): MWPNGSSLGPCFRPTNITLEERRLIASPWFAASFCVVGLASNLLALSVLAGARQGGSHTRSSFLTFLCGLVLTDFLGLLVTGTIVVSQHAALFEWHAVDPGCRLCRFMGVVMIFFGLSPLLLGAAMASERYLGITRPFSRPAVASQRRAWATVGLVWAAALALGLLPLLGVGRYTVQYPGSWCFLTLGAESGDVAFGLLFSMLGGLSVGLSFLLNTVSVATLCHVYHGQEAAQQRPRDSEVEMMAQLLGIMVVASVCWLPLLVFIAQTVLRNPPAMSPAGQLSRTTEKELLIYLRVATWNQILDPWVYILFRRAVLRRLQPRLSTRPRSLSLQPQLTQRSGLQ
The experiment in a line: FLIPR calcium signal, hTP. As to conditions: read-out: Other Receptors (EC50 in nM) hTP. The method, then: as §1, §2, §3
Compounds were tested in a high-throughput (HTS) or concentration-response (CoRe) format. […]

T1 sequence (P43116 whole entry): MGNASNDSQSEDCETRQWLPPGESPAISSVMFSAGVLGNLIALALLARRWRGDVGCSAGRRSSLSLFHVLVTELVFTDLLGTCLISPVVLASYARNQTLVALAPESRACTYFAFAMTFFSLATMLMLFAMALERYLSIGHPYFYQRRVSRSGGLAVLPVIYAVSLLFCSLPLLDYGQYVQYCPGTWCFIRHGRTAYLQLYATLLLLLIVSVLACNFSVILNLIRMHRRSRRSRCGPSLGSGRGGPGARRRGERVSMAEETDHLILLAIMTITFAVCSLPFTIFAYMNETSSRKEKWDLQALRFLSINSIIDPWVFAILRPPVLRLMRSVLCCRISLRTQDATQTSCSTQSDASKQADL
T2 sequence (P43088 whole entry): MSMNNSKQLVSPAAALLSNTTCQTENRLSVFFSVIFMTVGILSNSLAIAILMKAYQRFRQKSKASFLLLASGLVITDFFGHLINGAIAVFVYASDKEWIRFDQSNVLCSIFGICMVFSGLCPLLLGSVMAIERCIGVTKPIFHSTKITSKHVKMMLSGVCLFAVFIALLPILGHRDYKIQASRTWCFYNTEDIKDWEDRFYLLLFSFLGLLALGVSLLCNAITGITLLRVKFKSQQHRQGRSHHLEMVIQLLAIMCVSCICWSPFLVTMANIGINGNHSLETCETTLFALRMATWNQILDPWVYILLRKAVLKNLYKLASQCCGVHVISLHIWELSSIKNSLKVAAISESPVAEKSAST
T5 sequence (P35408 whole entry): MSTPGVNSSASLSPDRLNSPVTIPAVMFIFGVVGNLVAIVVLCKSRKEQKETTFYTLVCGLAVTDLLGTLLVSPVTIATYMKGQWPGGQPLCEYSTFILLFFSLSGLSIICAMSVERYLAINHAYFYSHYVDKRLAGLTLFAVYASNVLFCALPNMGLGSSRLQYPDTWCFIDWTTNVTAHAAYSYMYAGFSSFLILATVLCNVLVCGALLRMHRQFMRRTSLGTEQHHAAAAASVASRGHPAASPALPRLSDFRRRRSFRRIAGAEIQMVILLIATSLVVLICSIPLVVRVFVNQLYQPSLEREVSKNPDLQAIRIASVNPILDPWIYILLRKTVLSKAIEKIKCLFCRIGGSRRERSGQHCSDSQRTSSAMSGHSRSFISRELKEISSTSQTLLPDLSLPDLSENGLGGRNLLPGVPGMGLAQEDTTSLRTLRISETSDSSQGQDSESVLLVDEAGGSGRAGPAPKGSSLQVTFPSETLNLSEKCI

Turning to `O=C(O)c1ccc(CCC[C@@H]2[C@@H](CCc3cc(Cl)cc(Cl)c3)[C@@H](O)C[C@H]2Cl)s1` [compound 17, 5-(3-((1R,2R,3S,5R)-5-chloro-2-(3,5-dichlorophenethyl)-3-hydroxycyclopenty)propyl)thiophene-2-carboxylic acid], the EC50 on hEP2/Gqs5 was 501 nM; on hFP, greater than 10000 nM; on hEP3A/Gqi5 it was greater than 10000 nM; on hDP/Gqs5, greater than 10000 nM.
As for `O=C(O)c1ccc(CCC[C@@H]2[C@@H](CCc3cc(F)cc(F)c3)[C@H](O)C[C@H]2Cl)s1` [11d, 5-(3-((1R,2R,3R,5R)-5-chloro-2-(3,5-difluorophenethyl)-3-hydroxycyclopentyl)propyl)thiophene-2-carboxylic acid], the EC50 on hEP2/Gqs5 was 10 nM; at hEP4/Gqs5, greater than 10 µM; on hEP3A/Gqi5, 8540 nM; at hTP, 64 nM; on hDP/Gqs5, 12700 nM.
